Patent US4582698A, “Process for imaging cardiac infarcts” (The Dow Chemical Company, priority 1983, dated 1986)
Entries after “also recorded” stand apart in the source; their conditions may differ. Read-outs that look alike come from different tables or passages of the source.

Columns and labels:
infarcts = conditions: cited from earlier work
[1] = Tissue distribution of Tc-99m agents in rats with isoproterenol-induced heart damage (Table I); conditions: 60 minutes after i.v. (tail vein) injection
Description: (§1) The dosage used was proportional to the weight of the rats (30 mg isoproterenol hydrochloride/kilogram of body weight).
(§2) After five hours, the animals were injected with 50 μl (~1 mCi) of the above radioactive solution via the tail vein. The animals were killed by cervical dislocation 60 minutes after the injection of the technetium complex. The heart was excised, cut open, and blotted. Heart tissue was then washed with isotonic saline solution and weighed. Other organs were also dissected and weighed. The amount of radiation in each tissue was quantitatively determined using a NaI scintillation counter. Fifty μl standards of the complex solution were also counted. […] The levels are expressed as a percent of the original dose of radioactivity which was taken up by the tissue or fluid (blood).

damaged cardiac tissue = assay: Ratio of activity in damaged vs normal cardiac tissue of rats (Table II); format: in vivo, rat; conditions: isoproterenol-damaged rats vs control rats; 60 minutes after injection
Description: The heart was excised, cut open, and blotted. […] Other organs were also dissected and weighed.
Control animals (animals not injected with isoproterenol) were also injected with several ^99m Tc complexes.

[2] = rat, in vivo, iv, 1 h
Description: as §1, §2

[3] = in vivo; cited from earlier work

In the case of `O.O.O=P([O-])([O-])CP(=O)([O-])[O-].[99Tc+4]` [Methylenediphosphonate, ^99m Tc-methylenediphosphonate], the accumulation in infarcts (infarcts; in vivo) is given as “shown to accumulate in infarcts”, the “% Dose/g of Tissue (Fluid), Blood” value ([1]; blood) is given as 0.051 % Dose/g and the “% Dose/g of Tissue (Fluid), Liver” value ([1]; liver) is given as 0.060 % Dose/g. The “% Dose/g of Tissue (Fluid), Muscle” value ([1]; muscle) was 0.018 % Dose/g and the “% Dose/gram in Damaged Heart/% Dose/gram in Normal Heart” value (damaged cardiac tissue) was 20.5.
For ^99m Tc-hydroxyethylenediphosphonate, the accumulation in infarcts (infarcts; in vivo) is given as “shown to accumulate in infarcts”.
For `O=P([O-])([O-])OP(=O)([O-])[O-].[99Tc]` [Pyrophosphate, ^99m Tc-pyrophosphate], the “% Dose/g of Tissue (Fluid), Blood” value [2] was 0.182 % Dose/g, the “% Dose/g of Tissue (Fluid), Liver” value [2] was 0.131 % Dose/g and the “% Dose/g of Tissue (Fluid), Muscle” value [2] was 0.026 % Dose/g. The “infarct to bone ratio” value (infarcts; compared to other ^99m Tc bone seeking agents) was “relatively high”, the “detection of recent infarcts” value (infarcts; in vivo) was “inability to detect recent infarcts” and the “interference from skeletal structures in infarct imaging” value (infarcts; ribs and sternum / overlying skeletal structures) was “less interference from the ribs and sternum; also recorded: interference due to uptake in overlying skeletal structures”. The blood clearance [3] was “relatively slow” and the “% Dose/gram in Damaged Heart/% Dose/gram in Normal Heart” value (damaged cardiac tissue) was 21.4.
For ^99m Tc-glucoheptonate, the accumulation in infarcts (infarcts; in vivo) is given as “shown to accumulate in infarcts”.
